Data as given in PubChem BioAssay AID2060509 (Molecular Pharmacology Branch, DTP, NCI, 2025).

Test system: 485176-168-R4-J1-PDC spheroids with HUVEC/MSC, viability
Assay: Anticancer human tumor 485176-168-R4-J1-PDC patient-derived pancreatic adenocarcinoma cell line growth inhibition [GQUAD]
Conditions: for IC50: curve of first compound; for viability, T/C: stronger effect = lower value; active means viability on the fitted dose curve at most 10% of control; inactive means the rest
Description: DNA G-quadruplex Stabilizer Agents in Combinations in Complex Spheroids
A high-throughput screen of multi-cell type tumor spheroids was designed to identify active combinations of DNA G-quadruplex stabilizer agents and targeted small molecules. Complex spheroids include a stromal component modeled by human endothelial cells (HUVEC) and fibroblasts modeled by human mesenchymal stem cells (MSCs). The concentration ranges selected for each drug and investigational agent were based upon clinically achievable concentrations if the clinical Cmax of the agent was known.
Compounds. The drugs and investigational agents: pidnarulex (CX-5461; NSC782164), APTO-253 (NSC789042), BRACO-19 (NSC847499), peposertib (NSC802822), ceralasertib (NSC780249), elimusertib (NSC800525), camonsertib (NSC841442), AZD-1390 (NSC803789), olaparib (NSC753686), talazoparib (NSC767125), ART-558 (NSC835418), sotorasib (NSC818433), MRTX-1133 (NSC836407), SN-38 (NSC673596), topotecan (NSC609699), etoposide (NSC141540), doxorubicin (NSC123127), gemcitabine (NSC613327), 5-fluorouracil (NSC19893), paclitaxel (NSC125973), vemurafenib (NSC761431), panobinostat (NSC761190), R-306465 (JNJ-16241199; NSC773264), adavosertib (NSC754352), TP-3654 (NSC805149), carboplatin (NSC241240), KSQ-4279 (NSC840948), and staurosporine (NSC755774) were obtained from the National Cancer Institute (NCI) Developmental Therapeutics Program Chemical Repository (34). The FDA-approved anticancer drug set is available from the NCI Developmental Therapeutics Program. […] The stock solutions were prepared in dimethyl sulfoxide (DMSO, Sigma-Aldrich, St. Louis, MO, cat. D2650) at 800-fold the tested concentration and stored at -70 degrees C prior to their use. All drugs and investigational agents were tested over a range starting from a high concentration at or near the clinical Cmax and decreasing in half-log increments. If the clinical Cmax for an agent had not been determined, the highest concentration tested was 10 microM.
2.3 Cell Culture. All cells were maintained in an incubator at 37 degrees C and 5% CO2 with 95% humidity. The PDC lines were cultured according to standard operating procedures established by the NCI PDMR. All PDCs were thawed and cultured in Matrigel-coated flasks prepared with a working solution of 1X Ham's F-12 nutrient mix, without supplementation (Invitrogen, cat. 11765054), 100 U/mL penicillin-streptomycin (Invitrogen, cat. 15140122), and 2.5% Matrigel (Corning Inc., cat. 354248) for the first three passages. The 857933-349-R-J2-PDC line was cultured in 6C/Colon 1B media, which includes advanced DMEM/F-12 (Thermo Fisher Scientific, cat. 12634028), 10 mM HEPES (Thermo Fisher Scientific, cat. 15630080), 1X GlutaMAX supplement (Thermo Fisher Scientific, cat. 35050061), 0.1 mg/mL primocin (InvivoGen, cat. ant-pm-2), 10% defined fetal bovine serum, heat inactivated (HyClone Laboratories Inc., cat. SH30070.03HI), 50% L-WRN conditioned media (ATCC, cat. CRL-3276), 1.25 mM N-Acetyl-L-cysteine (Sigma-Aldrich, cat. A9165), 10 mM nicotinamide (Sigma-Aldrich, cat. N0636), 1X B-27 supplement (Thermo Fisher Scientific, cat. 17504044), 1X N-2 supplement (Thermo Fisher Scientific, cat. 17502048), 10 microM Y-27632 dihydrochloride (Tocris Bioscience, cat. 1254), and 50 ng/mL human EGF recombinant protein (Thermo Fisher Scientific, cat. PHG0311). The 485176-168-R4-J1-PDC line was cultured in Panc media, which includes all 6C/Colon 1B media components plus 100 ng/mL human FGF-10 (Thermo Fisher Scientific, cat. 100-26), 500 nM SB-431542 (Selleckchem, cat. S1067), and gastrin (Tocris, cat. 3006).
[…]

[1] = second compound 0.0316 µM, first compound 0.0316 µM
[2] = second compound 0.0316 µM, first compound 0.316 µM
[3] = second compound 0.1 µM, first compound 0.0316 µM
[4] = second compound 0.1 µM, first compound 0.316 µM
[5] = second compound 0.316 µM, first compound 0.0316 µM
[6] = second compound 0.316 µM, first compound 0.316 µM
[7] = second compound 1 µM, first compound 0.0316 µM
[8] = second compound 1 µM, first compound 0.316 µM
[9] = second compound 3.16 µM, first compound 0.0316 µM
[10] = second compound 3.16 µM, first compound 0.316 µM
[11] = second compound 10 µM, first compound 0.0316 µM
[12] = second compound 10 µM, first compound 0.316 µM
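Further: spheroids exposed to compounds for seven days before readout.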
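Wherever viability, T/C is given: percent viability relative to DMSO vehicle control wells as 100%.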

CCCS(=O)(=O)Nc1ccc(F)c(C(=O)c2c[nH]c3ncc(-c4ccc(Cl)cc4)cc23)c1F + CN(C)c1ccc(Nc2c3ccc(NC(=O)CCN4CCCC4)cc3nc3cc(NC(=O)CCN4CCCC4)ccc23)cc1
6.5 µM: IC50 (second compound 10 µM)
> 10 µM: IC50 (second compound 0.0316 µM) | IC50 (second compound 0.1 µM) | IC50 (second compound 0.316 µM) | IC50 (second compound 1 µM) | IC50 (second compound 3.16 µM)
inactive: viability, T/C [1] 87.4% | viability, T/C (second compound 0.0316 µM, first compound 0.1 µM) 81.9% | viability, T/C [2] 91.6% | viability, T/C (second compound 0.0316 µM, first compound 1 µM) 86.4% | viability, T/C (second compound 0.0316 µM, first compound 3.16 µM) 86.3% | viability, T/C (second compound 0.0316 µM, first compound 10 µM) 70.1% | viability, T/C [3] 100% | viability, T/C (second compound 0.1 µM, first compound 0.1 µM) 99% | viability, T/C [4] 83.2% | viability, T/C (second compound 0.1 µM, first compound 1 µM) 73.6% | viability, T/C (second compound 0.1 µM, first compound 3.16 µM) 94.3% | viability, T/C (second compound 0.1 µM, first compound 10 µM) 60% | viability, T/C [5] 97.5% | viability, T/C (second compound 0.316 µM, first compound 0.1 µM) 95% | viability, T/C [6] 91.1% | viability, T/C (second compound 0.316 µM, first compound 1 µM) 77.2% | viability, T/C (second compound 0.316 µM, first compound 3.16 µM) 90.8% | viability, T/C (second compound 0.316 µM, first compound 10 µM) 63.7% | viability, T/C [7] 76.3% | viability, T/C (second compound 1 µM, first compound 0.1 µM) 86.8% | viability, T/C [8] 105% | viability, T/C (second compound 1 µM, first compound 1 µM) 94.8% | viability, T/C (second compound 1 µM, first compound 3.16 µM) 82.5% | viability, T/C (second compound 1 µM, first compound 10 µM) 65.3% | viability, T/C [9] 91.8% | viability, T/C (second compound 3.16 µM, first compound 0.1 µM) 87.6% | viability, T/C [10] 78.8% | viability, T/C (second compound 3.16 µM, first compound 1 µM) 81.3% | viability, T/C (second compound 3.16 µM, first compound 3.16 µM) 81.2% | viability, T/C (second compound 3.16 µM, first compound 10 µM) 51.3% | viability, T/C [11] 76.6% | viability, T/C (second compound 10 µM, first compound 0.1 µM) 83.7% | viability, T/C [12] 65.4% | viability, T/C (second compound 10 µM, first compound 1 µM) 70.6% | viability, T/C (second compound 10 µM, first compound 3.16 µM) 63.3% | viability, T/C (second compound 10 µM, first compound 10 µM) 42.7%

Cn1ncnc1[C@H]1c2n[nH]c(=O)c3cc(F)cc(c23)N[C@@H]1c1ccc(F)cc1 + Cc1[nH]c2ccc(F)cc2c1-c1nc2c3cccnc3c3ncccc3c2[nH]1
> 0.316 µM: IC50 (second compound 0.0316 µM) | IC50 (second compound 0.1 µM) | IC50 (second compound 0.316 µM) | IC50 (second compound 1 µM) | IC50 (second compound 3.16 µM) | IC50 (second compound 10 µM)
inactive: viability, T/C (second compound 0.0316 µM, first compound 0.000999 µM) 109% | viability, T/C (second compound 0.0316 µM, first compound 0.00316 µM) 80.7% | viability, T/C (second compound 0.0316 µM, first compound 0.00999 µM) 103% | viability, T/C [1] 86.6% | viability, T/C (second compound 0.0316 µM, first compound 0.0999 µM) 91.8% | viability, T/C [2] 109% | viability, T/C (second compound 0.1 µM, first compound 0.000999 µM) 90.9% | viability, T/C (second compound 0.1 µM, first compound 0.00316 µM) 92.2% | viability, T/C (second compound 0.1 µM, first compound 0.00999 µM) 88.3% | viability, T/C [3] 109% | viability, T/C (second compound 0.1 µM, first compound 0.0999 µM) 93.4% | viability, T/C [4] 99.5% | viability, T/C (second compound 0.316 µM, first compound 0.000999 µM) 78.3% | viability, T/C (second compound 0.316 µM, first compound 0.00316 µM) 95.6% | viability, T/C (second compound 0.316 µM, first compound 0.00999 µM) 101% | viability, T/C [5] 117% | viability, T/C (second compound 0.316 µM, first compound 0.0999 µM) 97.9% | viability, T/C [6] 84.4% | viability, T/C (second compound 1 µM, first compound 0.000999 µM) 77.2% | viability, T/C (second compound 1 µM, first compound 0.00316 µM) 90.2% | viability, T/C (second compound 1 µM, first compound 0.00999 µM) 94.3% | viability, T/C [7] 90.5% | viability, T/C (second compound 1 µM, first compound 0.0999 µM) 87.2% | viability, T/C [8] 88.9% | viability, T/C (second compound 3.16 µM, first compound 0.000999 µM) 85.5% | viability, T/C (second compound 3.16 µM, first compound 0.00316 µM) 89.3% | viability, T/C (second compound 3.16 µM, first compound 0.00999 µM) 86.2% | viability, T/C [9] 79.7% | viability, T/C (second compound 3.16 µM, first compound 0.0999 µM) 96.4% | viability, T/C [10] 85.1% | viability, T/C (second compound 10 µM, first compound 0.000999 µM) 106% | viability, T/C (second compound 10 µM, first compound 0.00316 µM) 86.2% | viability, T/C (second compound 10 µM, first compound 0.00999 µM) 89.5% | viability, T/C [11] 77.9% | viability, T/C (second compound 10 µM, first compound 0.0999 µM) 91.7% | viability, T/C [12] 78.5%
